{"source": "the Kinase Knowledgebase extract (Sharma et al. 2016)", "key": {"PIK3CB (Human)": {"molecular_target": "PIK3CB (Human) (UniProt P42338)", "sequence (P42338 whole entry, looked up)": "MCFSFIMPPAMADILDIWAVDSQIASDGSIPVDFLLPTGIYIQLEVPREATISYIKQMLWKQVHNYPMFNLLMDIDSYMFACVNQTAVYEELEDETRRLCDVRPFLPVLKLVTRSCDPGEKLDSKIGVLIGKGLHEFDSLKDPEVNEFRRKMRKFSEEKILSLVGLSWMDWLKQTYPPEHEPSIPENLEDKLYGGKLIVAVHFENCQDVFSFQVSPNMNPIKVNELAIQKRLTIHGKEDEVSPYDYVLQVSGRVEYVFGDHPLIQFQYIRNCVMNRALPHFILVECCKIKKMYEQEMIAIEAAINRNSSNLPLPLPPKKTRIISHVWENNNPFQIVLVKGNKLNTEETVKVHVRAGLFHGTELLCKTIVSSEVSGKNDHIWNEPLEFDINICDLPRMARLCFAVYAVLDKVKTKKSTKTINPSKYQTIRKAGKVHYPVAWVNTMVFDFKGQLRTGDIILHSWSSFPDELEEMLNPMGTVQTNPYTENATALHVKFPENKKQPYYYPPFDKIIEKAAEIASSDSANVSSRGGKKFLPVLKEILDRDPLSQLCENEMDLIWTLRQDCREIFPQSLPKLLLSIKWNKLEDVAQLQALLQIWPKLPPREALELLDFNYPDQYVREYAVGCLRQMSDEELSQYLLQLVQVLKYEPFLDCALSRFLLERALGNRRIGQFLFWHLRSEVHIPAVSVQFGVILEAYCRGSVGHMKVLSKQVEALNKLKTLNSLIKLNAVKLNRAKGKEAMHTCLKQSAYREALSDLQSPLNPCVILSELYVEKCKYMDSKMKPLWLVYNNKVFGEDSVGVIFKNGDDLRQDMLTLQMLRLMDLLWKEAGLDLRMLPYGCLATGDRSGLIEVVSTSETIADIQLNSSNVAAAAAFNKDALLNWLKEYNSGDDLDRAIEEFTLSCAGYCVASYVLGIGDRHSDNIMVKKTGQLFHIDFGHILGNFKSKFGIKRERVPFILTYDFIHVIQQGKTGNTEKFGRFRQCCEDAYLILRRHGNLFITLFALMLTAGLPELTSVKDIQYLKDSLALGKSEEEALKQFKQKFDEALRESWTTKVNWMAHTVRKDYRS", "assay": "Assessment of PIK3CB Kinase Activity"}, "PIK3CG (human)": {"molecular_target": "PIK3CG (human) (UniProt P48736)", "sequence (P48736 whole entry, looked up)": "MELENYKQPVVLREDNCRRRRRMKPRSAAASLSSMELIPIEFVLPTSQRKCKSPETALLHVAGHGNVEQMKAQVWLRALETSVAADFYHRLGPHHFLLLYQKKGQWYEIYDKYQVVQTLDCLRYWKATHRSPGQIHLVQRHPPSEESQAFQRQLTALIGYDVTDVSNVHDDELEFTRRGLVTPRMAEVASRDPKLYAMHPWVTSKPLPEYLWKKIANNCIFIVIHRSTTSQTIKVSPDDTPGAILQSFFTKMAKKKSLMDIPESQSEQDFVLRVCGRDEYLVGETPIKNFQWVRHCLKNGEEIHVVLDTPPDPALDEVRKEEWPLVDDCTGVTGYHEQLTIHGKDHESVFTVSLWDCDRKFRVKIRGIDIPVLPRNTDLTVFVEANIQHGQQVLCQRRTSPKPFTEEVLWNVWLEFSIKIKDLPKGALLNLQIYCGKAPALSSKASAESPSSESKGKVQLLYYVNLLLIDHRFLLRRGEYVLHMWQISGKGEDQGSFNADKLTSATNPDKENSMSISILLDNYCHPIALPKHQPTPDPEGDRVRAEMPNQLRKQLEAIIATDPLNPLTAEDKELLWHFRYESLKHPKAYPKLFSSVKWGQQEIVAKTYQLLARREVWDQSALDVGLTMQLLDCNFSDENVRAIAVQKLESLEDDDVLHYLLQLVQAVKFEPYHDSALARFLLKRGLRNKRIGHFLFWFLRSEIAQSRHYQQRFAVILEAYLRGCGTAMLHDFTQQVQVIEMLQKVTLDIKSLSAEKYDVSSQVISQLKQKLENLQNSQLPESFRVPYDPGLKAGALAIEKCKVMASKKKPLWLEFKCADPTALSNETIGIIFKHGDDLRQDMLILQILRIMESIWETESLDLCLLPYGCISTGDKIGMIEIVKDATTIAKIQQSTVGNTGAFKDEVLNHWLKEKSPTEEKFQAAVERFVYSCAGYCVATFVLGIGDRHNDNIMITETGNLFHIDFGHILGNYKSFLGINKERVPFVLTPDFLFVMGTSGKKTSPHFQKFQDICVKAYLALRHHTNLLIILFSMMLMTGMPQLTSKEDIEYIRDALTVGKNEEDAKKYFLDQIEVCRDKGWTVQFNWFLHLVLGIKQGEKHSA", "assay": "Assessment of PIK3CG Kinase Activity"}, "PIK3CA (human)": {"molecular_target": "PIK3CA (human) (UniProt P42336)", "sequence (P42336 whole entry, looked up)": "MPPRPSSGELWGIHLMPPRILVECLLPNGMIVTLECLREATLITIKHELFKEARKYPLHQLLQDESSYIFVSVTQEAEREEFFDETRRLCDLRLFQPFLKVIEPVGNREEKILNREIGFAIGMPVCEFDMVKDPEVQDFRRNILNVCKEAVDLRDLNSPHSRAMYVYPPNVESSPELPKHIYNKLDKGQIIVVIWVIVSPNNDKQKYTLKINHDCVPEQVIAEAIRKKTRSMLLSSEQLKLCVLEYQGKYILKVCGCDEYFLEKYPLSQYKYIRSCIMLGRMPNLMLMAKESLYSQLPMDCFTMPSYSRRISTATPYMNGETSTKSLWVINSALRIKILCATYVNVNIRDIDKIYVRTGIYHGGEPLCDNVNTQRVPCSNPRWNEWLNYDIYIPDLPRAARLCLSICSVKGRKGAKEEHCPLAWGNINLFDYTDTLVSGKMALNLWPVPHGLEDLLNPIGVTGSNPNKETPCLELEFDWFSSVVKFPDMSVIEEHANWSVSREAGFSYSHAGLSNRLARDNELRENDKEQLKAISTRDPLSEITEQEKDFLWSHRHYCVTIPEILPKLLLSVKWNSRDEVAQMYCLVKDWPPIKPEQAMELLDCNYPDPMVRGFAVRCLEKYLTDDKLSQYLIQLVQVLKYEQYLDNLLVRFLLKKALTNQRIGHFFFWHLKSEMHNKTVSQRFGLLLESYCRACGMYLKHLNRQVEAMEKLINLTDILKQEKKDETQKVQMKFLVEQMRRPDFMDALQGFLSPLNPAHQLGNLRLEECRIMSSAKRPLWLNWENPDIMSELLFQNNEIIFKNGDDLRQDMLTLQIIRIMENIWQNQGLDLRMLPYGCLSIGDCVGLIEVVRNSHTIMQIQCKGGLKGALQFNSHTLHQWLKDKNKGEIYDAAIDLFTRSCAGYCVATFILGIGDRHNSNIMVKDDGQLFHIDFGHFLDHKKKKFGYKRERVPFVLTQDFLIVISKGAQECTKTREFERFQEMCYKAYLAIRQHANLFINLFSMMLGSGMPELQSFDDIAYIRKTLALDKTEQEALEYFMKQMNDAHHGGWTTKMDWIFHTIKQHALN", "assay": "Assessment of PIK3CA Kinase Activity"}, "PIK3CD (Human)": {"molecular_target": "PIK3CD (Human) (UniProt O00329)", "sequence (O00329 whole entry, looked up)": "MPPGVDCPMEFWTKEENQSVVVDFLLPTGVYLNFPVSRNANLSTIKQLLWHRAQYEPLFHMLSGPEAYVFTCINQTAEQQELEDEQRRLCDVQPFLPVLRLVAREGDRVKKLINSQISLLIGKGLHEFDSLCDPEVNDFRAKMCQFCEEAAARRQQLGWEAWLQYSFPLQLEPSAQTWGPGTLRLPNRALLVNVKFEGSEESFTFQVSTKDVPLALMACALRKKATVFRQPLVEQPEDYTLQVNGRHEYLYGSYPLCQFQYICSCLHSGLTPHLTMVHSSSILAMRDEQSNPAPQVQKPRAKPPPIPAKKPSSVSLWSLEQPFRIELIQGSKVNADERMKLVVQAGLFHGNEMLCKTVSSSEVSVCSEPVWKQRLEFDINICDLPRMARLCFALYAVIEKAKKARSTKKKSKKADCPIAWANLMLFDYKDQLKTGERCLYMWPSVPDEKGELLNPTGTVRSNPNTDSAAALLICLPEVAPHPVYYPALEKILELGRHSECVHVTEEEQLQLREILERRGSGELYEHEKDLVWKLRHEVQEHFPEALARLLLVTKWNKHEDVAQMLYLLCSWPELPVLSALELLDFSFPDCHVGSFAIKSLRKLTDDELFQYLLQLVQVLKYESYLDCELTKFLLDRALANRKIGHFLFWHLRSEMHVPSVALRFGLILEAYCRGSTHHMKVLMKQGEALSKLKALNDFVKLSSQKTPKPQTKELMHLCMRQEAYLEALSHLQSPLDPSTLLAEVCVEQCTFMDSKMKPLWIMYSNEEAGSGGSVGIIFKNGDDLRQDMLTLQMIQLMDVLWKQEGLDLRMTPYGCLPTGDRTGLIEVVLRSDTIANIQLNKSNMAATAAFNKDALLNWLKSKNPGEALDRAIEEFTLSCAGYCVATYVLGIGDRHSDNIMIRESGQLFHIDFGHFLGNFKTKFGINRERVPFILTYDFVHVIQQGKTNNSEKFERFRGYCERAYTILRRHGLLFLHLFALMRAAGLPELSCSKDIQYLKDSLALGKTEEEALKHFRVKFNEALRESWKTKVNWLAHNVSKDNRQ", "assay": "Assessment of PIK3CD Kinase Activity"}}}
{"smiles": "COCCN1CCN(C(=O)CNC(=O)Nc2nc3ccc(-c4cncc(S(=O)(=O)NC(C)(C)C)c4)cn3n2)CC1", "values": [{"measurement": "IC50", "setting": "PIK3CB (Human)", "result": "100 to 1000", "unit": "nM"}, {"measurement": "IC50", "setting": "PIK3CG (human)", "result": "< 100", "unit": "nM"}, {"measurement": "IC50", "setting": "PIK3CA (human)", "result": "100 to 1000", "unit": "nM"}, {"measurement": "IC50", "setting": "PIK3CD (Human)", "result": "< 100", "unit": "nM"}]}
{"smiles": "CC(C)(C)NS(=O)(=O)c1cncc(-c2ccc3nc(NC(=O)NCC(=O)N4CCCC4)nn3c2)c1", "values": [{"measurement": "IC50", "setting": "PIK3CG (human)", "result": "< 100", "unit": "nM"}, {"measurement": "IC50", "setting": "PIK3CD (Human)", "result": "< 100", "unit": "nM"}]}
{"smiles": "CC(C)(C)NS(=O)(=O)c1cncc(-c2ccc3nc(NC(=O)NCC(=O)N4CCC(N)CC4)nn3c2)c1", "values": [{"measurement": "IC50", "setting": "PIK3CB (Human)", "result": "100 to 1000", "unit": "nM"}, {"measurement": "IC50", "setting": "PIK3CG (human)", "result": "< 100", "unit": "nM"}, {"measurement": "IC50", "setting": "PIK3CD (Human)", "result": "< 100", "unit": "nM"}]}
{"smiles": "CC(C)NS(=O)(=O)c1cncc(-c2ccc3nc(NC(=O)NCC(=O)N4CCOCC4)nn3c2)c1", "values": [{"measurement": "IC50", "setting": "PIK3CG (human)", "result": "< 100", "unit": "nM"}, {"measurement": "IC50", "setting": "PIK3CA (human)", "result": "100 to 1000", "unit": "nM"}, {"measurement": "IC50", "setting": "PIK3CD (Human)", "result": "< 100", "unit": "nM"}]}
{"smiles": "CS(=O)(=O)c1cncc(-c2ccc3nc(NC(=O)NCC(=O)N4CCOCC4)nn3c2)c1", "values": [{"measurement": "IC50", "setting": "PIK3CG (human)", "result": "< 100", "unit": "nM"}, {"measurement": "IC50", "setting": "PIK3CD (Human)", "result": "100 to 1000", "unit": "nM"}]}
{"smiles": "CN(C(=O)CNC(=O)Nc1nc2ccc(-c3cncc(S(=O)(=O)NC(C)(C)C)c3)cn2n1)C1CC1", "values": [{"measurement": "IC50", "setting": "PIK3CG (human)", "result": "< 100", "unit": "nM"}, {"measurement": "IC50", "setting": "PIK3CA (human)", "result": "100 to 1000", "unit": "nM"}, {"measurement": "IC50", "setting": "PIK3CD (Human)", "result": "< 100", "unit": "nM"}]}
{"smiles": "CN1CCN(C(=O)CNC(=O)Nc2nc3ccc(-c4cncc(S(=O)(=O)NC(C)(C)C)c4)cn3n2)CC1", "values": [{"measurement": "IC50", "setting": "PIK3CB (Human)", "result": "100 to 1000", "unit": "nM"}, {"measurement": "IC50", "setting": "PIK3CG (human)", "result": "< 100", "unit": "nM"}, {"measurement": "IC50", "setting": "PIK3CA (human)", "result": "100 to 1000", "unit": "nM"}, {"measurement": "IC50", "setting": "PIK3CD (Human)", "result": "< 100", "unit": "nM"}]}
{"smiles": "CC(C)(C)NS(=O)(=O)c1cncc(-c2ccc3nc(NC(=O)NCCC(=O)N4CCCCC4)nn3c2)c1", "values": [{"measurement": "IC50", "setting": "PIK3CG (human)", "result": "< 100", "unit": "nM"}, {"measurement": "IC50", "setting": "PIK3CD (Human)", "result": "< 100", "unit": "nM"}]}
{"smiles": "CC(C)(C)NS(=O)(=O)c1cncc(-c2ccc3nc(NC(=O)NCC(=O)NC4CC4)nn3c2)c1", "values": [{"measurement": "IC50", "setting": "PIK3CB (Human)", "result": "100 to 1000", "unit": "nM"}, {"measurement": "IC50", "setting": "PIK3CG (human)", "result": "< 100", "unit": "nM"}, {"measurement": "IC50", "setting": "PIK3CD (Human)", "result": "100 to 1000", "unit": "nM"}]}
{"smiles": "CC(C)(C)NS(=O)(=O)c1cncc(-c2cc(F)c3nc(NC(=O)NCC(=O)N4CCOCC4)nn3c2)c1", "values": [{"measurement": "IC50", "setting": "PIK3CG (human)", "result": "< 100", "unit": "nM"}, {"measurement": "IC50", "setting": "PIK3CD (Human)", "result": "< 100", "unit": "nM"}]}
{"smiles": "CC(C)(C)NS(=O)(=O)c1cncc(-c2cc(F)c3nc(NC(=O)NCC(=O)N4CCCC4)nn3c2)c1", "values": [{"measurement": "IC50", "setting": "PIK3CG (human)", "result": "< 100", "unit": "nM"}, {"measurement": "IC50", "setting": "PIK3CD (Human)", "result": "100 to 1000", "unit": "nM"}]}
{"smiles": "CC(C)NS(=O)(=O)c1cncc(-c2ccc3nc(NC(=O)NCC(=O)N4CCCC4)nn3c2)c1", "values": [{"measurement": "IC50", "setting": "PIK3CG (human)", "result": "< 100", "unit": "nM"}, {"measurement": "IC50", "setting": "PIK3CD (Human)", "result": "< 100", "unit": "nM"}]}
{"smiles": "CC(C)(C)NS(=O)(=O)c1cncc(-c2ccc3nc(NC(=O)NCC(=O)N4CCCCC4)nn3c2)c1", "values": [{"measurement": "IC50", "setting": "PIK3CG (human)", "result": "< 100", "unit": "nM"}, {"measurement": "IC50", "setting": "PIK3CA (human)", "result": "100 to 1000", "unit": "nM"}, {"measurement": "IC50", "setting": "PIK3CD (Human)", "result": "< 100", "unit": "nM"}]}
{"smiles": "CC(C)(C)NS(=O)(=O)c1cncc(-c2ccc3nc(NC(=O)NCC(=O)NC4CCNCC4)nn3c2)c1", "values": [{"measurement": "IC50", "setting": "PIK3CB (Human)", "result": "100 to 1000", "unit": "nM"}, {"measurement": "IC50", "setting": "PIK3CG (human)", "result": "< 100", "unit": "nM"}, {"measurement": "IC50", "setting": "PIK3CD (Human)", "result": "100 to 1000", "unit": "nM"}]}
{"smiles": "CC(C)(C)NS(=O)(=O)c1cncc(-c2ccc3nc(NC(=O)NCCC(=O)N4CCCC4)nn3c2)c1", "values": [{"measurement": "IC50", "setting": "PIK3CB (Human)", "result": "100 to 1000", "unit": "nM"}, {"measurement": "IC50", "setting": "PIK3CG (human)", "result": "< 100", "unit": "nM"}, {"measurement": "IC50", "setting": "PIK3CD (Human)", "result": "< 100", "unit": "nM"}]}
{"smiles": "CC(C)(C)NS(=O)(=O)c1cncc(-c2ccc3nc(NC(=O)NCC(=O)N4CCOCC4)nn3c2)c1", "values": [{"measurement": "IC50", "setting": "PIK3CB (Human)", "result": "100 to 1000", "unit": "nM"}, {"measurement": "IC50", "setting": "PIK3CG (human)", "result": "< 100", "unit": "nM"}, {"measurement": "IC50", "setting": "PIK3CA (human)", "result": "100 to 1000", "unit": "nM"}, {"measurement": "IC50", "setting": "PIK3CD (Human)", "result": "< 100", "unit": "nM"}]}
{"smiles": "CN(C)[C@H]1CCN(C(=O)CNC(=O)Nc2nc3ccc(-c4cncc(S(=O)(=O)NC(C)(C)C)c4)cn3n2)C1", "values": [{"measurement": "IC50", "setting": "PIK3CB (Human)", "result": "100 to 1000", "unit": "nM"}, {"measurement": "IC50", "setting": "PIK3CG (human)", "result": "< 100", "unit": "nM"}, {"measurement": "IC50", "setting": "PIK3CA (human)", "result": "100 to 1000", "unit": "nM"}, {"measurement": "IC50", "setting": "PIK3CD (Human)", "result": "< 100", "unit": "nM"}]}
{"smiles": "O=C(NCC(=O)N1CCCC1)Nc1nc2ccc(-c3cncc(C(F)(F)F)c3)cn2n1", "values": [{"measurement": "IC50", "setting": "PIK3CB (Human)", "result": "> 10000", "unit": "nM"}, {"measurement": "IC50", "setting": "PIK3CG (human)", "result": "< 100", "unit": "nM"}]}
